One data set addresses T1, ERK2 (Homo sapiens, UniProt P28482).
T1 construct: endogenous in cells; host or cells: MDA-MB-231
Put plainly: ERK2 degradation, western blot in MDA-MB-231 cells. The format is cell-based. The note with it: 0.025-2.5 µM. The procedure: (§1) […] once with ice-cold PBS (1 × ), followed by lysis in buffer containing 25 mM Tris [pH 7.5], 0.25% sodium deoxycholate, 1% Triton X-100, supplemented with 1X protease inhibitor cocktail (Roche), and phosphatase inhibitors (10 mM NaF, 1 mM Na3VO4, and 20 mM β-glycerophosphate), unless otherwise noted. Lysates were spun at 14,000 × g for 10 min at 4 °C and supernatant was evaluated for protein content using a Pierce BCA Protein Assay (ThermoFisher Scientific). In all experiments, 25–50 μg of protein was loaded onto 10% SDS-PAGE gels or 4–20% Criterion TGX precast gradient gels (Bio-Rad), transferred to nitrocellulose membranes, and probed with the specified antibodies overnight at 4 °C in 1X TBS-Tween (Tris-buffered saline plus 0.02% Tween 20) containing 5% non-fat milk. Immunoblots were visualized using a Bio-Rad ChemiDoc imaging instrument and subsequently processed and quantified using the accompanying Bio-Rad ImageLab software. See Supplementary Figure 8 for uncropped scans of western blots shown in the main text figures.
(§2) Supplementary Figure 4 cont.
(§3) Supplementary Figure 4. Characterization of M APK fam ily degradation selectivity (related to Figures 1-2). (a) p38 M APK fam ily m em bers (α, β, δ, γ) were aligned using the T-Coffee multiple sequence alignm ent server. […] Note: JNK1 and JNK2 are expressed as two alternatively-spliced form s. […]

Another data set addresses T2, p38δ:PROTAC:VHL (Homo sapiens, UniProt O15264+P40337).
T2 construct: encoding a region spanning amino acids 1–365; His6 (N); made in house; host or cells: E. coli BL21-CodonPlus(DE3)-RIPL (p38δ); E. coli BL21(DE3) (GST-VBC)
The data set is described as follows: SPR ternary binding, equimolar p38δ:PROTAC injected onto immobilized VHL. Conditions: for p38δ:PROTAC:VHL t1/2: ternary complex half-life. The procedure:
SPR experiments were conducted on a Biacore 3000 instrument (GE Healthcare) at room temperature. GST antibody was immobilized through direct amination onto a carboxymethylated dextran surface (CM5) and GST-VBC was captured on the CM5 surface. This prepared surface was equilibrated over 3 h in running buffer (10 mM HEPES buffer pH 7.4, 150 mM NaCl, 0.4 mg mL^−1 BSA, 0.005% P20, 2% DMSO). All compounds were prepared in 100% DMSO stock plates with a top concentration of 500 µM in a 3× serial dilution. Compounds were transferred from the stock plate to the assay plate and diluted into running buffer without DMSO. Equimolar concentration of target protein was added to corresponding compound wells. All compounds were run as a 12-point concentration series with a final assay top concentration of 50 µM to measure p38δ:PROTAC and VHL:PROTAC binding and top concentration of 5 µM to measure p38δ:PROTAC:VHL binding. All compounds were injected for 60 s and allowed to dissociate for 300 s. Data analysis was performed in Scrubber 2 (BioLogic Software). Blanks from reference flow cell containing immobilized GST-VBC were subtracted to correct for noise and data were solvent-corrected against a standard DMSO curve. All reported Kd values represent an average of at least two replicates and were obtained by fitting to a minimum of five concentrations using a 1:1 fitting algorithm.

The target of data set [1] is T3, VHL:PROTAC:p38α ternary complex (Homo sapiens, UniProt P40337+Q16539).
T3 construct: The plasmid contains an N-terminal His6 tag and encodes a region spanning amino acids 2–360 of the human p38α kinase; made in house; host or cells: E. coli BL21-CodonPlus(DE3)-RIPL (p38α); E. coli BL21(DE3) (GST-VBC)
T3 sequence (Q16539 2-360 limits assumed): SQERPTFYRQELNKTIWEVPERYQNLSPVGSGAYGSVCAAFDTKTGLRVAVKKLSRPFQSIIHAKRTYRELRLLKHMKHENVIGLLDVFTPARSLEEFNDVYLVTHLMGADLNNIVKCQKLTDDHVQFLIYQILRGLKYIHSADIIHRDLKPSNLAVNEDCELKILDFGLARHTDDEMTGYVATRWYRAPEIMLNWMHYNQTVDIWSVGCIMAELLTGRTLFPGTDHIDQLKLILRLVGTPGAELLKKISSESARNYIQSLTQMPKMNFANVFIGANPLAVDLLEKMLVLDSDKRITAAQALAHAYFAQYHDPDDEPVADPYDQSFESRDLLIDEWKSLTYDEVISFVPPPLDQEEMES
T3 sequence (P40337 whole entry, the tested form may be a part): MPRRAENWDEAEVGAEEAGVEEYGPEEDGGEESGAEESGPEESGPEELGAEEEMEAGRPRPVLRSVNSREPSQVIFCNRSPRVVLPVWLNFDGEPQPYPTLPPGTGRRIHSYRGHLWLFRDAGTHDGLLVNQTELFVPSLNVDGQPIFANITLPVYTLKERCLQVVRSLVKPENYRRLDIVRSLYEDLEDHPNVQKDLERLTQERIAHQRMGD
T3 sequence (Q15370 whole entry partner, the tested form may be a part): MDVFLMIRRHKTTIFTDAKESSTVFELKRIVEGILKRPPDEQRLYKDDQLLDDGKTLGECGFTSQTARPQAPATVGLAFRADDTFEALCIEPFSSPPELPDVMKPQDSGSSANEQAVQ
T3 sequence (Q15369 whole entry partner, the tested form may be a part): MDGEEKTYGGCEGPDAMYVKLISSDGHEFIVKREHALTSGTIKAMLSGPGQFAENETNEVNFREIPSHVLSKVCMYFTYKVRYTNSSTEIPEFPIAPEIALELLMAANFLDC
The data set is described as follows: AlphaLISA ternary complex assay. The format is binding. The note with it: His-p38α and GST-VBC 150 nM, increasing PROTAC. The method, then:
Assays were performed at room temperature and plates sealed with transparent film between addition of reagents to prevent well contamination. All reagents were diluted in 50 mM HEPES pH 7.5, 50 mM NaCl, 69 µM Brij-35, and 0.1 mg mL^−1 BSA. Recombinant GST-VBC was mixed with His6-p38α and PROTAC (diluted one-in-three from 6× stock) to a final volume of 15 μL per well in a OptiPlate-384 well microplate (PerkinElmer) and incubated for 30 min. VBC and p38α were kept at a constant final concentration of 150 nM. In all, 7.5 μL of Anti-6xHis AlphaLISA Acceptor beads (PerkinElmer) were added to each well and plates were incubated for 15 min in the dark. In total, 7.5 μL of Alpha Glutathione Donor beads (PerkinElmer) were added to each well and plates were incubated for 45 min in the dark. Plates were read on a Synergy 2 microplate reader using the Gen5 imager software (BioTek Instruments) with an excitation wavelength of 680 nm and emission wavelength of 615 nm. Intensity values were plotted in Graphpad Prism with PROTAC concentration values represented on a log10 scale.

The test system of a further data set is JNK2. Put plainly: JNK2 degradation, western blot in MDA-MB-231 cells. The format is cell-based, human. Conditions: 0.025-2.5 µM. The procedure: as §1, §2, §3
The next data set has as its system α-tubulin. Put plainly: CETSA in MDA-MB-231 cell lysate, negative control protein. Format: binding, human. Conditions: 100 µM PROTAC, 51-55 °C, vs DMSO. The procedure: CETSA protocol was adapted from[60]. In all, 3 × 10^7 MDA-MB-231 cells (1 × 10^7 cells per condition) were collected and resuspended in ice-cold 1X PBS supplemented with 1X protease inhibitor cocktail (Roche) and lysed by three cycles of liquid nitrogen snap freeze, followed by 50% thaw in a room temperature water bath and an additional 50% thaw at 4 °C. After each freeze–thaw cycle, lysate was vortexed briefly to ensure homogenous thawing. Lysate was then cleared for 20 min by centrifugation (14,000 × g at 4 °C) and the soluble fraction was divided into three equal aliquots. The aliquots were treated with vehicle (2.5% DMSO), 100 µM SJFα, or 100 µM SJFδ and incubated at room temperature for 30 min with gentle rotation. Each aliquot was then divided (50 µL) into eight PCR tubes and individually heated at the indicated temperature for 3 min followed by cooling at room temperature for 3 min. After cooling, samples were spun down for 20 min (14,000 × g at 4 °C) and the supernatant (soluble fraction) was analyzed by SDS-PAGE and immunoblotted for p38δ and alpha-tubulin (negative control).

Where [2] appears, read: SPR ternary, Replicate 2, read-out: koff.
[3] abbreviates: SPR, ternary, VHL immobilized, read-out: p38δ:PROTAC:VHL koff.

Consider two molecules from paper PMC6328587 (Nature Communications, 2019).

pKd: −log10 of the molar value. Read-outs that look alike come from different tables or passages of the source.

T2 sequence (O15264 whole entry, the tested form may be a part): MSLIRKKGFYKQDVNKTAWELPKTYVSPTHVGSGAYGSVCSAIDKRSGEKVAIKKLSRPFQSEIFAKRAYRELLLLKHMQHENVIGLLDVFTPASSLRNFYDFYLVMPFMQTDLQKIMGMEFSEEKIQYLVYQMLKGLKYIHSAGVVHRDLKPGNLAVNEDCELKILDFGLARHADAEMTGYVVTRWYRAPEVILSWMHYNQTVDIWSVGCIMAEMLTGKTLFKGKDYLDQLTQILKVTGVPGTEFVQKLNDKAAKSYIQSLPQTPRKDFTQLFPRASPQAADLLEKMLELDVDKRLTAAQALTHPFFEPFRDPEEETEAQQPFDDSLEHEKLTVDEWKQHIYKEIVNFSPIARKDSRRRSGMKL
T2 sequence (P40337 whole entry, the tested form may be a part): as the sequence (P40337 whole entry, the tested form may be a part) above
T2 sequence (Q15370 whole entry partner, the tested form may be a part): as the sequence (Q15370 whole entry partner, the tested form may be a part) above
T2 sequence (Q15369 whole entry partner, the tested form may be a part): as the sequence (Q15369 whole entry partner, the tested form may be a part) above
T1 sequence (P28482 whole entry): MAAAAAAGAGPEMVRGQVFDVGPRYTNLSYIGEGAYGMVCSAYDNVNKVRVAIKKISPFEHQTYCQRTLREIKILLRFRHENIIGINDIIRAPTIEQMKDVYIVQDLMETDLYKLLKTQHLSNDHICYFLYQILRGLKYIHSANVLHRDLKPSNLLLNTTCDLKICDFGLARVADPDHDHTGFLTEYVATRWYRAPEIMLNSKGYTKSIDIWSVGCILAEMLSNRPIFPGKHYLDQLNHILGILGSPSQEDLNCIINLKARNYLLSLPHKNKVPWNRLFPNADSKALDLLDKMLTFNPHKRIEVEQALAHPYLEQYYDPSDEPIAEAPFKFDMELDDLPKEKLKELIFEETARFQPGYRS

Consider `COc1cc2c(Oc3ccc(NC(=O)C4(C(=O)Nc5ccc(F)cc5)CC4)cc3F)ccnc2cc1OCCCCOCCCCOCC(=O)N[C@H](C(=O)N1C[C@H](O)C[C@H]1C(=O)NCc1ccc(-c2scnc2C)cc1)C(C)(C)C` [SJFα], for which the ERK2 degradation result at ERK2 was “neither PROTAC degrades”. Further, the “ternary affinity weaker than the SJFδ-induced complex” value on p38δ:PROTAC:VHL (SPR) is ~ 3 fold. Also, the koff at p38δ:PROTAC:VHL (SPR ternary, Replicate 1, read-out: koff) was 0.083 s⁻¹; on p38δ:PROTAC:VHL (setting [2]), 0.082 s⁻¹; on p38δ:PROTAC:VHL (setting [3]), 0.072 s⁻¹. For the same molecule, the “p38δ:PROTAC:VHL t1/2” value on p38δ:PROTAC:VHL (SPR) worked out at 8 s. In addition, the association rate constant (kon) on p38δ:PROTAC:VHL (SPR, ternary, VHL immobilized) came to 70100 M⁻¹ s⁻¹. Also, the “p38α:PROTAC:VHL ternary complex formation (AlphaLISA)” value in data set [1] was “facilitates a VHL:PROTAC:p38α ternary complex”. Further, the JNK2 degradation result in the data set on JNK2 is on record as “neither PROTAC degrades”. The “thermal shift of α-tubulin” value in the data set on α-tubulin was “thermal shifts were not seen”.
Take `COc1cc2c(Oc3ccc(NC(=O)C4(C(=O)Nc5ccc(F)cc5)CC4)cc3F)ccnc2cc1OCCOCCOCCOc1cc(-c2scnc2C)ccc1CNC(=O)[C@@H]1C[C@@H](O)CN1C(=O)[C@H](C(C)C)N1Cc2ccccc2C1=O` [SJFδ]: the ERK2 degradation result at ERK2 is on record as “neither PROTAC degrades”. The “leftward shift of ternary affinity from the VHL:PROTAC binary affinity” value on p38δ:PROTAC:VHL (SPR) was ~ 8 fold. The koff was determined as 0.017 s⁻¹ at p38δ:PROTAC:VHL (setting [2]) and 0.018 s⁻¹ on p38δ:PROTAC:VHL (setting [3]). In addition, the negative logarithm of the Kd (pKd) on p38δ:PROTAC:VHL (SPR, Replicate 1) is 6.45; at p38δ:PROTAC:VHL (SPR, Replicate 2), 6.29. For the same molecule, the “p38δ:PROTAC:VHL t1/2” value at p38δ:PROTAC:VHL (SPR) is 38 s. The molecule further yielded a kon at p38δ:PROTAC:VHL (SPR, ternary, VHL immobilized) of 39600 M⁻¹ s⁻¹. Besides, the “p38α:PROTAC:VHL ternary complex formation (AlphaLISA)” value in data set [1] is on record as “no such ternary species is detectable”. Further, the JNK2 degradation entry with JNK2 is recorded as “neither PROTAC degrades”. In the data set on α-tubulin, the “thermal shift of α-tubulin” value is listed as “thermal shifts were not seen”.
